The record followed here is PMC7351726, “Design, synthesis, structure, in vitro cytotoxic activity evaluation and docking studies on target enzyme GSK-3β of new indirubin-3ʹ-oxime derivatives” (Scientific Reports, 2020).

Common to all, as to assay type: cell-based
The test system of assay [1] is HepG2 cells. Description: In vitro cytotoxicity, SRB cell viability assay, HepG2. Conditions: Homo sapiens, 48 h, mean ± SD, triplicate. The method, then:
(§1) For Hepatocarcinoma (HepG2), human lung carcinoma (LU-1), human colorectal adenocarcinoma (SW480) and human normal embryonic kidney (HEK-293) cell lines, the culture medium was Dulbecco’s Modified Eagle’s Medium (DMEM) (Hyclone, USA). The medium supplementation included 10% fetal bovine serum (Hyclone), 100 units/ml penicillin, and 100 μg/ml streptomycin at 37 °C in an atmosphere with 5% CO2 and 95% humidity. For the human leukemia (HL-60) cell line, the maintenance was performed in RPMI-1640 medium (Life Technologies, Inc.) supplemented with 10% heat-inactivated fetal bovine serum (Hyclone) and 100 units/ml penicillin, and 100 μg/ml streptomycin.
(§2) Cell viability assay was conducted using SRB method for HepG2, LU-1, SW480 and HEK-293 cell lines, based on the measurement of protein content. Cells were plated with 180 μl growth medium into 96-microwell plates (4 × 10^4 cells per well) and allowed to grow overnight. Test compounds at various concentrations including 20 μM; 4 μM; 0.8 μM; 0.16 μM with incubation medium were supplemented and cultivated for additional 48 h in the same conditions. Afterwards, the removal of the medium was performed and cold 20% (wt/vol) TCA was used to fix the cell monolayer attached to the wall for 1 h at 4 °C, followed by staining with 1X SRB staining solution at room temperature for 30 min and the removal of the residual dye via repeated washing with 1% (v/v) acetic acid. For OD determination at 515 nm, an ELISA Plate Reader (Bio-Rad) was utilized to analyze the protein-bound dye, which dissolved in 10 mM Tris base solution. […] The cell survival rate (SR) was calculated as SR = [(ODt − OD0)/(ODc − OD0)] × 100, where the subscript 0, t and c represent time-zero, […] and the DMSO control sample.

The subject of assay [2] is LU-1 cells. Description: In vitro cytotoxicity, SRB cell viability assay, LU-1. As to conditions: Homo sapiens, Lu1; LU-1, SRB, 48 h, mean ± SD, triplicate. As to the method: as §1, §2
For assay [3], the system named is SW480 cells. Description: In vitro cytotoxicity, SRB cell viability assay, SW480. Conditions: Homo sapiens, 48 h, mean ± SD, triplicate. The method, then: as §1, §2
Assay [4] concerns HL-60 cells. As to the kind of experiment: In vitro cytotoxicity, MTT assay, HL-60. Conditions: Homo sapiens; HL-60, MTT, 72 h, mean ± SD, triplicate. The method, then:
as §1
For HL-60 cell line, 5 × 10^3 cells/well were seeded in 96-multiwell plate and cultured overnight. The test compounds were serially diluted to the wells with concentrations ranging at 20 μM; 4 μM; 0.8 μM and 0.16 μM then incubated for 72 h. Thereafter, each well was added with 10 μl of MTT (5 mg/ml in 1X PBS), followed by incubation for 3 h and centrifugation at 1,500 rpm for 10 min. The media were discarded then added 150 μl DMSO to each well. Optical density was measured using a microplate reader at 540 nm.

Assay [5] relates to HEK-293 cells. Description: In vitro cytotoxicity, SRB cell viability assay, normal kidney HEK-293. As to conditions: Homo sapiens, HEK293, HEK-293 normal kidney cells, 48 h, mean ± SD, triplicate. As to the method: as §1, §2

One may read the IC50 as the point on the concentration scale where inhibition reaches its midpoint. Read a low IC50 as greater potency in that assay.

For the compound `CN(C)CCn1cc(CN2C(=O)/C(=C3\Nc4ccccc4\C3=N/O)c3ccccc32)nn1` [Compound 6m], the IC50 in assay [1] was found to be 15.3 ± 0.17 µM; in assay [2] it was 8.74 ± 1.06 µM; in assay [3] it was 14.4 ± 0.72 µM; in assay [4] it was 16 ± 0.38 µM; in assay [5], 11.9 ± 1.75 µM.
In the case of `COc1cc(/C=C/C(=O)c2ccc(OCCn3cc(CN4C(=O)/C(=C5\Nc6ccccc6\C5=N/O)c5ccccc54)nn3)cc2O)cc(OC)c1OC` [Compound 6b], the IC50 in assay [1], in assay [2], in assay [3], in assay [4] and in assay [5] was more than 20 µM in each case.
Regarding `CCCOc1ccc(/C=C/C(=O)c2ccc(OCCn3cc(CN4C(=O)/C(=C5\Nc6ccccc6\C5=N/O)c5ccccc54)nn3)cc2O)cc1` [Compound 6l], the IC50 in assay [1] came out at 3.28 ± 0.25 µM; in assay [2], 2.07 ± 0.31 µM; in assay [3], 3.03 ± 0.11 µM; in assay [4] it was 1.28 ± 0.16 µM; in assay [5] it was 7.12 ± 0.18 µM.
For `COc1ccccc1/C=C/C(=O)c1ccc(OCCn2cc(CN3C(=O)/C(=C4\Nc5ccccc5\C4=N/O)c4ccccc43)nn2)cc1O` [Compound 6c], the IC50 in assay [1] worked out at 3.38 ± 0.68 µM; in assay [2], 2.99 ± 0.55 µM; in assay [3], 3.8 ± 0.52 µM; in assay [4], 1.43 ± 0.22 µM; in assay [5], 1.19 ± 0.12 µM.
Consider `CCOc1ccccc1/C=C/C(=O)c1ccc(OCCn2cc(CN3C(=O)/C(=C4\Nc5ccccc5\C4=N/O)c4ccccc43)nn2)cc1O` [Compound 6f], for which the IC50 turned out to be 2.01 ± 0.43 µM in assay [1]; 1.3 ± 0.14 µM in assay [2]; 2.54 ± 0.25 µM in assay [3]; 0.98 ± 0.12 µM in assay [4]; 1.03 ± 0.11 µM in assay [5].
As to `CCOc1ccc(/C=C/C(=O)c2ccc(OCCn3cc(CN4C(=O)/C(=C5\Nc6ccccc6\C5=N/O)c5ccccc54)nn3)cc2O)cc1` [Compound 6h], the IC50 stood at 14.2 ± 1.79 µM in assay [1]; 8.74 ± 0.55 µM in assay [2]; 14.1 ± 1.18 µM in assay [3]; 6.5 ± 0.98 µM in assay [4]; 9.74 ± 0.53 µM in assay [5].
As to `Cc1c2ccncc2c(C)c2c1[nH]c1ccccc12` [Ellipticine, reference compound], the IC50 in assay [1] amounted to 1.93 ± 0.54 µM; in assay [2], 2.5 ± 0.82 µM; in assay [3] it was 1.76 ± 0.63 µM; in assay [4], 2.19 ± 1.12 µM; in assay [5], 0.32 ± 0.03 µM.
As to `O=C1/C(=C2\Nc3ccccc3\C2=N/O)c2ccccc2N1Cc1cn(CCN2CCOCC2)nn1` [Compound 6p], the IC50 in assay [1] came to 10.6 ± 0.79 µM; in assay [2], 8.61 ± 0.57 µM; in assay [3] it was 11.7 ± 0.48 µM; in assay [4], 11.2 ± 1.04 µM; in assay [5], 7.72 ± 0.42 µM.
The corresponding values for `O=C1Nc2ccccc2/C1=C1/Nc2ccccc2C1=O` [Compound 1, indirubin] are more than 20 µM, more than 20 µM, more than 20 µM, more than 20 µM and more than 20 µM.
As to `CCCOc1ccccc1/C=C/C(=O)c1ccc(OCCn2cc(CN3C(=O)/C(=C4\Nc5ccccc5\C4=N/O)c4ccccc43)nn2)cc1O` [Compound 6i], the IC50 in assay [1] stood at 2.28 ± 0.12 µM; in assay [2] it was 2.07 ± 0.26 µM; in assay [3] it was 3.43 ± 0.84 µM; in assay [4], 1.28 ± 0.34 µM; in assay [5], 0.85 ± 0.05 µM.
The corresponding values for `O=C(/C=C/c1ccccc1)c1ccc(OCCn2cc(CN3C(=O)/C(=C4\Nc5ccccc5\C4=N/O)c4ccccc43)nn2)cc1O` [Compound 6a] are 3.56 ± 0.75 µM, 2.26 ± 0.32 µM, 3.36 ± 0.64 µM, 2.39 ± 0.46 µM and 3.21 ± 0.43 µM.
The corresponding values for `C#CCN1C(=O)/C(=C2\Nc3ccccc3C2=O)c2ccccc21` [Compound 3] are more than 20 µM, more than 20 µM, more than 20 µM, more than 20 µM and more than 20 µM.
The matching figures for `O=C1Nc2ccccc2C1=C1Nc2ccccc2C1=NO` [Compound 2, indirubin-3′-oxime, reference compound]: 16 ± 0.62 µM, 16.4 ± 1.05 µM, 15.7 ± 0.74 µM, 16.5 ± 0.94 µM and 14.2 ± 0.71 µM.
Turning to `COc1ccc(/C=C/C(=O)c2ccc(OCCn3cc(CN4C(=O)/C(=C5\Nc6ccccc6\C5=N/O)c5ccccc54)nn3)cc2O)cc1` [Compound 6e], the IC50 in assay [1] amounted to 4.62 ± 1.07 µM; in assay [2] it was 3.28 ± 0.48 µM; in assay [3], 4.66 ± 0.92 µM; in assay [4] it was 3.27 ± 0.37 µM; in assay [5], 6.98 ± 0.25 µM.
As to `O=C1/C(=C2\Nc3ccccc3\C2=N/O)c2ccccc2N1Cc1cn(CCN2CCCCC2)nn1` [Compound 6n], the IC50 was determined as 11.7 ± 0.23 µM in assay [1]; 10.1 ± 0.44 µM in assay [2]; 12.5 ± 0.53 µM in assay [3]; 10.4 ± 0.84 µM in assay [4]; 9.52 ± 0.07 µM in assay [5].
For `C#CCN1C(=O)/C(=C2\Nc3ccccc3\C2=N/O)c2ccccc21` [Compound 4], the IC50 was more than 20 µM in assay [1]; 19.6 ± 1.23 µM in assay [2]; 18.6 ± 0.91 µM in assay [3]; 15.3 ± 0.35 µM in assay [4]; 16.2 ± 0.33 µM in assay [5].
For the compound `CCCOc1cccc(/C=C/C(=O)c2ccc(OCCn3cc(CN4C(=O)/C(=C5\Nc6ccccc6\C5=N/O)c5ccccc54)nn3)cc2O)c1` [Compound 6k], the IC50 was 2.95 ± 0.19 µM in assay [1]; 2.5 ± 0.34 µM in assay [2]; 2.91 ± 0.13 µM in assay [3]; 1.29 ± 0.14 µM in assay [4]; 1.92 ± 0.17 µM in assay [5].
For the compound `O=C1/C(=C2\Nc3ccccc3\C2=N/O)c2ccccc2N1Cc1cn(CCn2ccnc2)nn1` [Compound 6o], the IC50 came out at 11.7 ± 0.26 µM in assay [1]; 8.8 ± 0.38 µM in assay [2]; 11.2 ± 0.76 µM in assay [3]; 9.39 ± 0.45 µM in assay [4]; 5.89 ± 0.75 µM in assay [5].
The corresponding values for `COc1cccc(/C=C/C(=O)c2ccc(OCCn3cc(CN4C(=O)/C(=C5\Nc6ccccc6\C5=N/O)c5ccccc54)nn3)cc2O)c1` [Compound 6d] are 3.76 ± 0.75 µM, 2.85 ± 0.74 µM, 4.46 ± 1.18 µM, 3.4 ± 0.76 µM and 2.01 ± 0.64 µM.
As for `CCOc1cccc(/C=C/C(=O)c2ccc(OCCn3cc(CN4C(=O)/C(=C5\Nc6ccccc6\C5=N/O)c5ccccc54)nn3)cc2O)c1` [Compound 6g], the IC50 in assay [1] turned out to be 5.68 ± 0.71 µM; in assay [2], 3.96 ± 0.62 µM; in assay [3] it was 4.1 ± 0.57 µM; in assay [4], 4.82 ± 0.46 µM; in assay [5], 1.8 ± 0.21 µM.
